Tested on: epidermis / stratum corneum (skin cell renewal)
Assay: Skin cell renewal (dansyl chloride) method
Format: in vivo, human
Details: standard positive control; topical, pH 3.0 dissolved in water; vs untreated site
Description: Several test methods were used to evaluate results of the compositions according to the present disclosure. One test method used was the skin cell renewal (dansyl chloride) method. The rate of cell renewal, or the transit time for an epidermal basal cell, to mature and slough off the skin surface can be assessed via a dansyl chloride staining method. As we age the rate of renewal decreases from about 15-20 days for a person to about 30 days for a person. […]
The full thickness epidermis was stained with a fluorescent dye as follows: 5% ultra pure dansyl chloride was milled into petrolatum and applied as a very thin film to standard adhesive bandages that were 2 cm by 3 cm. […] Staining was confirmed by viewing the sites with a long wave (ultra violet) UV light source to detect dansyl chloride fluorescence. […]
To assess product effects on cell renewal rates, test products were applied topically twice a day in a randomized fashion to the test sites with an untreated site serving as a control. […] Removal of the stain, reflecting loss of stratum corneum was monitored daily with the UV light source until complete removal, usually occurring in 3-4 weeks, of all stain was noted. The percentage increase in cell renewal was calculated as follows: […]

CC(O)C(=O)O (stereo not shown) [5% lactic acid, lactic acid]
increases in renewal rates (percentage increase in cell renewal): 25-30%
